Laboratory results published in patent publication US6737383B1, “Herbicidal oxadiazolidines” (priority 1999, dated 2004).

Legend:
bedstraw = test: Test B pre/postemergence bedstraw; type: in vivo, Galium aparine; details: Postemergence
Summary of the method: (§1)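 Test chemicals in a non-phytotoxic solvent mixture with surfactant were sprayed preemergence onto planted seeds and postemergence onto plants 2 to 18 cm tall (1- to 4-leaf stage). After twelve to sixteen days in a greenhouse, injury was visually rated against untreated controls from 0 (no effect) to 10 (complete control).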

velvetleaf = test: Test B pre/postemergence velvetleaf; type: in vivo, Abutilon theophrasti
Summary of the method: as §1

giant foxtail = test: Test B pre/postemergence giant foxtail; type: in vivo, Setaria faberii
Summary of the method: as §1

corn = test: Test B pre/postemergence corn; type: in vivo, Zea mays
Summary of the method: as §1

sugar beet = test: Test B pre/postemergence sugar beet; type: in vivo, Beta vulgaris
Summary of the method: as §1

morningglory = test: Test B pre/postemergence morningglory; type: in vivo, Ipomoea hederacea
Summary of the method: as §1

blackgrass = test: Test B pre/postemergence blackgrass; type: in vivo, Alopecurus myosuroides
Summary of the method: as §1

cocklebur = test: Test B pre/postemergence cocklebur; type: in vivo, Xanthium strumarium
Summary of the method: as §1

crabgrass = test: Test B pre/postemergence crabgrass; type: in vivo, Digitaria sanguinalis
Summary of the method: as §1

soybean = test: Test B pre/postemergence soybean; type: in vivo, Glycine max
Summary of the method: as §1

rape = test: Test B pre/postemergence rape; type: in vivo, Brassica napus
Summary of the method: as §1

smallflower flatsedge = test: Test B flood test smallflower flatsedge; type: in vivo, Cyperus difformis
Summary of the method: (§2)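 Plants were grown to the 2-leaf stage before treatment with test chemical, then held in a greenhouse for twelve to sixteen days. Injury was visually rated against untreated controls on a 0–10 scale, where 0 is no effect and 10 is complete control.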

bamyardgrass = test: Test B flood test barnyardgrass; type: in vivo, Echinochloa crus-galli; details: for Plant response rating, Barnyardgrass: scale 0 to 10, 0 is no effect, 10 is complete control; for Barnyardgrass plant response rating: scale of 0 to 10 where 0 is no effect and 10 is complete control
Summary of the method: as §2

purple nutsedge = test: Test B pre/postemergence purple nutsedge; type: in vivo, Cyperus rotundus
Summary of the method: as §1

wild oat = test: Test B pre/postemergence wild oat; type: in vivo, Avena fatua
Summary of the method: as §1

duck salad = test: Test B flood test duck salad; type: in vivo, Heteranthera limosa; details: for Plant response rating, Ducksalad: scale 0 to 10, 0 is no effect, 10 is complete control; for Ducksalad plant response rating: scale of 0 to 10 where 0 is no effect and 10 is complete control
Summary of the method: as §2

pigweed = test: Test B pre/postemergence pigweed; type: in vivo, Amaranthus retroflexus
Summary of the method: as §1

wheat = test: Test B pre/postemergence wheat; type: in vivo, Triticum aestivum
Summary of the method: as §1

surinam grass = test: Test B pre/postemergence surinam grass; type: in vivo, Brachiaria decumbens
Summary of the method: as §1

rice = test: Test B flood test rice; type: in vivo, Oryza sativa
Summary of the method: as §2

[1] = Postemergence, Rate 250 g/ha, scale 0 to 10, 0 is no effect, 10 is complete control
[2] = Postemergence, Rate 500 g/ha, scale of 0 to 10 where 0 is no effect and 10 is complete control
[3] = Preemergence, Rate 62 g/ha, scale 0 to 10 (0 no effect, 10 complete control)
[4] = Preemergence, Rate 125 g/ha, scale of 0 to 10 where 0 is no effect and 10 is complete control
[5] = Preemergence, Rate 250 g/ha, scale 0 to 10, 0 is no effect, 10 is complete control
[6] = Preemergence, Rate 500 g/ha, scale 0 to 10, 0 is no effect, 10 is complete control
[7] = Postemergence, Rate 125 g/ha, scale 0 to 10, 0 is no effect, 10 is complete control
[8] = Rate 62 g/ha, Postemergence, scale of 0 to 10 where 0 is no effect and 10 is complete control
[9] = Preemergence, Rate 250 g/ha, scale of 0 to 10 where 0 is no effect and 10 is complete control
[10] = Postemergence section (flood test species), Rate 500 g/ha, scale of 0 to 10 where 0 is no effect and 10 is complete control
[11] = flood test species, listed under Postemergence, Rate 250 g/ha, scale 0 to 10, 0 is no effect, 10 is complete control
[12] = Postemergence (flood test), Rate 125 g/ha
[13] = Postemergence section (flood test species), Rate 500 g/ha
[14] = Rate 62 g/ha, Postemergence (flood test species)
[15] = flood test species, listed under Postemergence, Rate 250 g/ha

## CC(C)N(C(=O)n1oc(=O)n(C2CCOCC2)c1=O)c1ccccc1 [Compound 416]
bedstraw; Rate 125 g/ha, scale 0 to 10, 0 is no effect, 10 is complete control
  Plant response rating, Bedstraw: 3
bedstraw; Rate 500 g/ha, scale of 0 to 10 where 0 is no effect and 10 is complete control
  Bedstraw plant response rating: 7
velvetleaf; [1]
  Plant response rating, Velvetleaf: 0
velvetleaf; [2]
  Velvetleaf plant response rating: 6
velvetleaf; [3]
  Plant response rating, Velvetleaf: 0
velvetleaf; [4]
  Plant response rating, Velvetleaf: 3
velvetleaf; [5]
  Velvetleaf plant response rating: 6
velvetleaf; [6]
  Velvetleaf plant response rating: 8
Giant foxtail; [7]
  Plant response rating, Giant foxtail: 8
Giant foxtail; [1]
  Plant response rating, Giant foxtail: 9
Giant foxtail; [2]
  Giant foxtail plant response rating: 9
Giant foxtail; [3]
  Plant response rating, Giant foxtail: 8
Giant foxtail; [4]
  Plant response rating, Giant foxtail: 10
Giant foxtail; [5]
  Giant foxtail plant response rating: 10
Giant foxtail; [6]
  Giant foxtail plant response rating: 10
Giant foxtail; [8]
  Giant foxtail plant response rating: 7
corn; [7]
  Plant response rating, Corn: 0
corn; [1]
  Plant response rating, Corn: 5
corn; [2]
  Corn plant response rating: 7
corn; [3]
  Plant response rating, Corn: 0
corn; [4]
  Plant response rating, Corn: 0
corn; [5]
  Corn plant response rating: 3
corn; [6]
  Corn plant response rating: 6
corn; [8]
  Corn plant response rating: 0
Sugar beet; [1]
  Plant response rating, Sugarbeets: 0
Sugar beet; [2]
  Sugarbeets plant response rating: 2
Sugar beet; [3]
  Plant response rating, Sugarbeets: 3
Sugar beet; [4]
  Plant response rating, Sugarbeets: 4
Sugar beet; [5]
  Sugarbeets plant response rating: 7
Sugar beet; [6]
  Sugarbeets plant response rating: 9
morningglory; [1]
  Plant response rating, Morningglory: 9
morningglory; [2]
  Morningglory plant response rating: 9
morningglory; [3]
  Plant response rating, Morningglory: 0
morningglory; [4]
  Plant response rating, Morningglory: 4
morningglory; [5]
  Morningglory plant response rating: 6
morningglory; [6]
  Morningglory plant response rating: 8
blackgrass; [7]
  Plant response rating, Blackgrass: 9
blackgrass; [1]
  Plant response rating, Blackgrass: 9
blackgrass; [2]
  Blackgrass plant response rating: 9
blackgrass; [3]
  Plant response rating, Blackgrass: 8
blackgrass; [4]
  Plant response rating, Blackgrass: 9
blackgrass; [9]
  Blackgrass plant response rating: 10
blackgrass; [6]
  Blackgrass plant response rating: 10
blackgrass; [8]
  Blackgrass plant response rating: 6
cocklebur; [7]
  Plant response rating, Cocklebur: 0
cocklebur; [1]
  Plant response rating, Cocklebur: 0
cocklebur; [2]
  Cocklebur plant response rating: 5
cocklebur; [3]
  Plant response rating, Cocklebur: 0
cocklebur; [4]
  Plant response rating, Cocklebur: 0
cocklebur; [5]
  Cocklebur plant response rating: 0
cocklebur; [6]
  Cocklebur plant response rating: 4
cocklebur; [8]
  Cocklebur plant response rating: 0
crabgrass; [7]
  Plant response rating, Crabgrass: 6
crabgrass; [1]
  Plant response rating, Crabgrass: 9
crabgrass; [2]
  Crabgrass plant response rating: 9
crabgrass; [3]
  Plant response rating, Crabgrass: 7
crabgrass; [4]
  Plant response rating, Crabgrass: 10
crabgrass; [5]
  Crabgrass plant response rating: 10
crabgrass; [6]
  Crabgrass plant response rating: 10
crabgrass; [8]
  Crabgrass plant response rating: 2
soybean; [1]
  Plant response rating, Soybean: 6
soybean; [2]
  Soybean plant response rating: 7
soybean; [3]
  Plant response rating, Soybean: 0
soybean; [4]
  Plant response rating, Soybean: 4
soybean; [5]
  Soybean plant response rating: 7
soybean; [6]
  Soybean plant response rating: 9
rape; [1]
  Plant response rating, Rape: 3
rape; [2]
  Rape plant response rating: 3
rape; [3]
  Plant response rating, Rape: 7
rape; [4]
  Plant response rating, Rape: 9
rape; [5]
  Rape plant response rating: 9
rape; [6]
  Rape plant response rating: 10
Smallflower flatsedge; [10]
  S. Flatsedge plant response rating: 0
Smallflower flatsedge; [11]
  Plant response rating, S. Flatsedge: 0
bamyardgrass; [12]
  Plant response rating, Barnyardgrass: 0
bamyardgrass; [13]
  Barnyardgrass plant response rating: 0
bamyardgrass; [14]
  Barnyardgrass plant response rating: 0
bamyardgrass; [15]
  Plant response rating, Barnyardgrass: 0
Purple nutsedge; [1]
  Plant response rating, Nutsedge: 0
Purple nutsedge; [2]
  Nutsedge plant response rating: 0
Purple nutsedge; [3]
  Plant response rating, Nutsedge: 0
Purple nutsedge; [4]
  Plant response rating, Nutsedge: 0
Purple nutsedge; [5]
  Nutsedge plant response rating: 3
Purple nutsedge; [6]
  Nutsedge plant response rating: 4
Wild oat; [2]
  Wild oats plant response rating: 7
Wild oat; [3]
  Plant response rating, Wild oats: 6
Wild oat; [4]
  Plant response rating, Wild oats: 7
Wild oat; [5]
  Wild oats plant response rating: 8
Wild oat; [6]
  Wild oats plant response rating: 10
Duck salad; [12]
  Plant response rating, Ducksalad: 0
Duck salad; [13]
  Ducksalad plant response rating: 0
Duck salad; [14]
  Ducksalad plant response rating: 0
Duck salad; [15]
  Plant response rating, Ducksalad: 0
pigweed; [1]
  Plant response rating, Redroot pigweed: 2
pigweed; [2]
  Redroot pigweed plant response rating: 7
pigweed; [3]
  Plant response rating, Redroot pigweed: 7
pigweed; [4]
  Plant response rating, Redroot pigweed: 9
pigweed; [5]
  Redroot pigweed plant response rating: 10
pigweed; [6]
  Redroot pigweed plant response rating: 10
wheat; [2]
  Wheat plant response rating: 7
wheat; [3]
  Plant response rating, Wheat: 2
wheat; [4]
  Plant response rating, Wheat: 4
wheat; [5]
  Wheat plant response rating: 7
wheat; [6]
  Wheat plant response rating: 10
Surinam grass; [7]
  Plant response rating, B. signalgrass: 6
Surinam grass; [1]
  Plant response rating, B. signalgrass: 8
Surinam grass; [2]
  B. signalgrass plant response rating: 9
Surinam grass; [3]
  Plant response rating, B. signalgrass: 7
Surinam grass; [4]
  Plant response rating, B. signalgrass: 7
Surinam grass; [9]
  B. signalgrass plant response rating: 7
Surinam grass; Preemergence, Rate 500 g/ha, scale of 0 to 10 where 0 is no effect and 10 is complete control
  B. signalgrass plant response rating: 9
Surinam grass; [8]
  B. signalgrass plant response rating: 2
rice; [10]
  Rice plant response rating: 0
rice; [11]
  Plant response rating, Rice: 0
